According to patent US9238022B2, “Xanthanodien for the treatment of cancer” (priority 2010, dated 2016):
Entries after “also recorded” stand apart in the source; their conditions may differ.

Legend:
[1] = tested on: ovarian cancer cells JC, NIH:OVCAR-3, SKOV-3; test: In vitro cytotoxicity test (Alamar blue, microscopy) on ovarian cancer cells; format: cell-based; conditions: for cytotoxicity towards ovarian cancer cells (in words): 1, 5 and 10 μg/mL
Procedure: (§1) Cells used in the assays were an ovarian cell line, JC (van Haaften-Day et al. 1983. Cancer Research 43: 3725-3731), OVCAR-3 and SKOV-3, The American Type Culture Collection (ATCC), a melanoma line (MM-An, Byers et al. 1991. Am J Path 139, No 2: 423-435) and normal human diploid fibroblasts primary cultures (Brookes et al. 2002 The EMBO Journal Vol. 21, No. 12: 2936-2945).
(§2) In vitro cytotoxicity tests were performed using a non-fluorescent substrate, Alamar blue (BioSource, Invitrogen, UK) as described by Page et al. (Page B, Page M and Noel C. 1993. International Journal of Oncology 3: 473-476).
(§3) Ovarian cancer cells (1×10^4 or 5×10^4) were seeded in 24-well plates (Costar, USA) and grown in RPMI-1640, supplemented with 6 mM L-glutamine, 10% fetal calf serum (FCS) (Gibco, Invitrogen, UK) and penicillin (100 units/mL) and streptomycin (100 μg/mL), while melanoma cells and normal fibroblasts were grown in Dulbecco's modified Eagle medium (DMEM), also supplemented with L-glutamine and FCS. The cultures were maintained in a humidified atmosphere of 5% CO2 at 37° C.
(§4) The in exponential growth cultures (in triplicates) were treated with the compound, dissolved in dimethyl sulfoxide (DMSO) and added at final concentrations of 1, 5, and 10 μg/mL. In 2 mL medium/well 10% Alamar blue was added and 100 μl of the supernatant of the 24-well plates after 24, 48 and 72 hrs were pipetted into 96-well plates (Costar, USA). Cell viability was measured with a 96-well plate reader (Molecular Devices Ltd, UK).
(§5) Ovarian cancer cells JC, NIH:OVCAR-3, Skov-3, fibroblasts as well as melanoma cancer cells MM-AN were used for cytotoxicity tests with EPD and EPA. The final concentrations of EPD and EPA added to the growth medium were 1, 5 and 10 μg/ml per well.
(§6) Photographs were taken from the ovarian cancer cell line JC, the melanoma cell line MM-An and normal fibroblasts in 24-well plates using a Leica inverted microscope at a magnification of 100 times. Concentrations of EPD ranged 1-10 μg/mL and the experiments were terminated at 48 and 72 hrs (FIGS. 6-8).
Cell viability was measured by adding 10% Alamar Blue (BioSource, Invitrogen, UK) to ovarian cancer cell cultures (OVCAR-3, SKOV-3) to 1, 5 and 10 μg/ml of EPD and to the control cultures (as described above). After 24, 48 and 72 hours incubation, 100 μl of culture supernatant was taken and cell viability measured with a plate reader (Molecular Devices, Ltd, UK) according to the manufacturer's instructions. The results are depicted in FIGS. 3-5 and confirm that the phenomenon observed in the photographs of FIGS. 6-8 is cell death.

NIH:OVCAR-3 cells = test: Ovarian cancer animal model (i.p. OVCAR-3 ascites); format: in vivo, Balb/c nu/nu mice
Procedure: In order to assess the efficacy of EPD in the treatment of ovarian cancer, in vivo experiments were performed with Balb/c nu/nu mice (Charles River Laboratories, France). As a model system of advanced ovarian cancer, a total of 20 Balb/c nu/nu mice were inoculated intra-peritoneally (i.p.) with 1.0×10^7 cells NIH:OVCAR-3 cells (American Type Culture Collection (ATCC number: HTB-161™)/200 μl PBS. NIH:OVCAR-3 is an appropriate model system in which to study drug resistance in ovarian cancer. Upon inoculation into the abdominal cavity ascites were formed at first in only 5 mice. One mouse after having developed a large abdomen was sacrificed and the ascites cells were inoculated into the 15 mice which had not developed ascites. Another mouse was sacrificed to freeze down the cells. […] The 15 mice without ascites were devided into 3 groups of 5 mice. One group served as control, one group received the standard chemotherapy cisplatin and one group received the test drug EPD.
Drugs were given 200 μl/mouse i.p. in order to assess their efficacy as anti-tumor drug. The weight of mice when drug-treated varied between 22 and 26 gram, all with a swollen abdomen. Reduction of the swollen abdomen of the mice (resulting from the killing of the OVCAR-3 cells) was then studied.
Eremophila-1(10)-11(13)-dien-12,8β-olide (EPD) was administered at 20 mg/kg body weight. EPD was isolated from Calomeria amaranthoides as described in Example 1 above. The drug was inoculated twice a week into the abdominal cavity of the mice.

melanoma cells MM-AN = test: In vitro cytotoxicity test on melanoma cells; format: cell-based
Procedure: as §1, §2, §3, §4, §5, §6

[2] = tested on: normal human diploid fibroblasts; test: In vitro cytotoxicity test on normal cells; format: cell-based
Procedure: The cultures were maintained in a humidified atmosphere of 5% CO2 at 37° C.
as §4, §5, §6

P388 Leukemia = conditions: NCI screening data 1972; cited from earlier work
leukocytes = conditions: Dupuis & Brisson 1976; cited from earlier work
[3] = 20 mg/kg i.p. twice a week for 6 weeks

## N.N.[Cl][Pt][Cl] [cisplatin, reference compound]
[1]; comparison of crude extract, cisplatin and docetaxol, concentration of the drugs not given
  killing of cancer cells, parallel comparison: all killed; also recorded: completely kill
NIH:OVCAR-3 cells; 5 mg/kg i.p. once a week for 4 weeks
  swelling of the abdomen (ascites): reduced during treatment
NIH:OVCAR-3 cells; 5 mg/kg i.p. once a week, 4 weeks
  general health, side effects: got very sick; also recorded: had to be euthanized

## C=C1C(=O)O[C@@H]2CC3=CCC[C@H](C)[C@@]3(C)C[C@H]12 [EPD, eremophila-1(10)-11(13)-dien-12,8β-olide]
[1]; 1 μg/mL, in vitro
  effect on cancer cells at 1 μg/mL: many cancer cells were floating in the wells; also recorded: great cell loss was already seen; also recorded: substantial killing of cancer cells
[1]; 5 μg/mL, 48 hours
  cell death of cancer cells at 5 μg/mL: Cell death was observed in the majority of cancer cells; also recorded: killed
[1]; 10 μg/mL, 48 hours
  cell death of cancer cells at 10 μg/mL: All cells were dead
[1]
  cytotoxicity towards ovarian cancer cells (in words): significant activity; also recorded: very clear cytotoxic effects
[1]; in vitro, compared with normal cells
  selectivity, cancer cells over normal cells: selectively kills cancer cells over normal cells
Melanoma cells MM-AN; 5 μg/mL, 48 hours, MM-An
  cell death of cancer cells at 5 μg/mL: Cell death was observed in the majority of cancer cells
Melanoma cells MM-AN; 10 μg/mL, 48 hours, MM-An
  cell death of cancer cells at 10 μg/mL: All cells were dead
[2]; 5 μg/mL, 48 hours
  effect on normal cells at 5 μg/mL: not or little affected; also recorded: largely unaffected; also recorded: little affected
[2]; 10 μg/mL, 48 hours
  effect on normal fibroblasts at 10 μg/mL: more evidence of cell death
NIH:OVCAR-3 cells; [3]
  general health, side effects: looked very healthy; also recorded: did not show any signs of side effects
  swelling of the abdomen (ascites): reduced during treatment; also recorded: remission of cancer; also recorded: the ascites disappeared
NIH:OVCAR-3 cells; i.p. twice a week for 6 weeks
  survival: all the animals survived the study
NIH:OVCAR-3 cells; three mice kept one month without further treatment after 6 weeks of treatment
  return of ascites after end of treatment: In one mouse the ascites returned, two mice did not develop ascites again

## C=C(C(=O)O)[C@@H]1CCC2=CCC[C@H](C)[C@@]2(C)C1 [EPA, eremophila-1(10),11(13)-dien-12-oic acid]
[1]
  cytotoxicity towards ovarian cancer cells (in words): non-cytotoxic; also recorded: no cytotoxicity; also recorded: did not show cytotoxic effects
Melanoma cells MM-AN; 1, 5 and 10 μg/mL
  cytotoxicity towards melanoma cells (in words): no cytotoxicity
[2]; 1, 5 and 10 μg/mL
  cytotoxicity towards normal fibroblasts (in words): no cytotoxicity

## CC(=O)O[C@@]12CO[C@@H]1C[C@H](O)[C@@]1(C)C(=O)[C@H](O)C3=C(C)[C@@H](OC(=O)[C@H](O)[C@@H](NC(=O)OC(C)(C)C)c4ccccc4)C[C@@](O)([C@@H](OC(=O)c4ccccc4)[C@H]21)C3(C)C [docetaxol, reference compound]
[2]; concentration of the drugs not given
  killing of normal cells, parallel comparison: completely kill

## C=C1C(=O)O[C@H]2CC3=CCC[C@H](C)[C@@]3(C)C[C@@H]12 [napthofuranone, (3aβ,4aα,5α,9aβ)-3a,4,4a,5,6,7,9,9a-octahydro 4a,5-dimethyl-3-methylene naphtho[2,3-b]furan-2(3H)-2-one]
P388 Leukemia
  in vivo anti-tumor activity: no clear results

## C=C1C(=O)O[C@@H]2C[C@@]3(C)CCC[C@H](C)C3=C[C@H]12 [alantolactone]
leukocytes
  toxicity to leukocytes: toxic
